Data from PMC7919409, “Crystal structures of adenylylated and unadenylylated PII protein GlnK from Corynebacterium glutamicum” (Acta Crystallographica. Section D, Structural Biology, 2021).

Target: T1, adGlnK (adenylylated GlnK) (Corynebacterium glutamicum, UniProt H7C694)
T1 construct: gene glnB; full length, untagged (stop codon inserted before Xa-Strep tag), produced in C. glutamicum; Tyr51 O-adenylylated (AMP covalently attached); homotrimer, hexamer in crystal; 112 residues
Assay: X-ray crystal structure, […] A
Format: binding
Details: fortuitously bound, co-purified (no nucleotide added), one of six effector sites at subunit interface, Tyr51 adenylylated, Mg, Ca, pH 7.1, 292 K

T1 sequence (H7C694 entry or part of it): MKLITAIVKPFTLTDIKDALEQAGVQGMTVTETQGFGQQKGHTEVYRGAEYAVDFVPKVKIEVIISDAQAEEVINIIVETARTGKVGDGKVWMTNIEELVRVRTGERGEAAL

Row | Structure (SMILES) | X-ray crystal structure, 1.8 A (non-covalent AMP in ATP-binding pocket, distinct from) | X-ray crystal structure, 1.8 A
1 | Nc1ncnc2c1ncn2[C@@H]1O[C@H](COP(=O)(O)O)[C@@H](O)[C@H]1O [AMP] | fortuitous binding of AMP and ADP was observed in the remaining two binding sites | –
2 | Nc1ncnc2c1ncn2[C@@H]1O[C@H](COP(=O)(O)OP(=O)(O)O)[C@@H](O)[C@H]1O [ADP] | – | fortuitous binding of AMP and ADP was observed in the remaining two binding sites
